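Compound exposure: 48 hours, 5 concentrations, 96-well plates. TGI: total growth inhibition.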
What was measured:
Assay in all cases: NCI anticancer screen, dose series, 48 h
[1] = test system: SK-OV-3 ovarian
[2] = test system: DU-145 prostate
[3] = test system: OVCAR-5 ovarian
[4] = test system: MDA-N
[5] = test system: SF-268 CNS
[6] = test system: HT29 colon
[7] = test system: MDA-MB-231 breast
[8] = test system: SK-MEL-28 melanoma
[9] = test system: SN12C renal
[10] = test system: OVCAR-4 ovarian
[11] = test system: SF-539 CNS
[12] = test system: SW-620 colon
[13] = test system: SF-295 CNS
[14] = test system: COLO 205 colon
[15] = test system: U251 CNS
[16] = test system: MDA-MB-435
[17] = test system: HOP-92 NSCLC
[18] = test system: SNB-19 CNS
[19] = test system: NCI/ADR-RES ovarian
[20] = test system: M14 melanoma
[21] = test system: CAKI-1 renal
[22] = test system: T-47D breast
[23] = test system: LOX IMVI melanoma
[24] = test system: UACC-257 melanoma
[25] = test system: HCT-116 colon
[26] = test system: MALME-3M melanoma
[27] = test system: NCI-H226 lung
[28] = test system: ACHN renal
[29] = test system: OVCAR-3 ovarian
[30] = test system: A498 renal
[31] = test system: SK-MEL-5 melanoma
[32] = test system: SR leukemia
[33] = test system: IGROV1 ovarian
[34] = test system: A549 NSCLC
[35] = test system: CCRF-CEM leukemia
[36] = test system: HL-60(TB) leukemia
[37] = test system: NCI-H460 lung
[38] = test system: 786-0 renal
[39] = test system: TK-10 renal
[40] = test system: PC-3 prostate
[41] = test system: RXF 393 renal
[42] = test system: HCC-2998 colon
[43] = test system: MOLT-4 leukemia
[44] = test system: KM12 colon
[45] = test system: K-562 leukemia
[46] = test system: SK-MEL-2 melanoma
[47] = test system: HCT-15 colon
[48] = test system: OVCAR-8 ovarian
[49] = test system: RPMI-8226 leukemia
[50] = test system: EKVX NSCLC
[51] = test system: HS 578T breast
[52] = test system: NCI-H23 lung
[53] = test system: UACC-62 melanoma
[54] = test system: MCF7 breast
[55] = test system: UO-31 renal
[56] = test system: NCI-H522 lung
[57] = test system: HOP-62 NSCLC

SMILES: CC(=O)c1c(-c2ccc(Cl)cc2)c(-c2ccc(Cl)cc2)n[nH]c1=O
- TGI [1]: > 100 µM
- TGI [2]: > 100 µM
- TGI [3]: > 100 µM
- TGI [4]: > 100 µM
- TGI [5]: > 100 µM
- TGI [6]: > 100 µM
- TGI [7]: 86.4 µM
- TGI [8]: > 100 µM
- TGI [9]: 93.3 µM
- TGI [10]: 94.8 µM
- TGI [11]: 64.2 µM
- TGI [12]: > 100 µM
- TGI [13]: > 100 µM
- TGI [14]: > 100 µM
- TGI [15]: > 100 µM
- TGI [16]: > 100 µM
- TGI [17]: > 100 µM
- TGI [18]: > 100 µM
- TGI [19]: > 100 µM
- TGI [20]: > 100 µM
- TGI [21]: > 100 µM
- TGI [22]: > 100 µM
- TGI [23]: 73.9 µM
- TGI [24]: > 100 µM
- TGI [25]: > 100 µM
- TGI [26]: 79 µM
- TGI [27]: > 100 µM
- TGI [28]: 66.1 µM
- TGI [29]: 79.8 µM
- TGI [30]: 77.4 µM
- TGI [31]: > 100 µM
- TGI [32]: > 100 µM
- TGI [33]: > 100 µM
- TGI [34]: > 100 µM
- TGI [35]: > 100 µM
- TGI [36]: 68.8 µM
- TGI [37]: > 100 µM
- TGI [38]: > 100 µM
- TGI [39]: > 100 µM
- TGI [40]: > 100 µM
- TGI [41]: > 100 µM
- TGI [42]: > 100 µM
- TGI [43]: > 100 µM
- TGI [44]: > 100 µM
- TGI [45]: > 100 µM
- TGI [46]: 81.3 µM
- TGI [47]: > 100 µM
- TGI [48]: > 100 µM
- TGI [49]: 55.4 µM
- TGI [50]: > 100 µM
- TGI [51]: > 100 µM
- TGI [52]: > 100 µM
- TGI [53]: 43.3 µM
- TGI [54]: > 100 µM

SMILES: COC(=O)/C(C)=N/NC(=S)SC
- TGI [1]: > 100 µM
- TGI [2]: > 100 µM
- TGI [3]: > 100 µM
- TGI [4]: > 100 µM
- TGI [5]: > 100 µM
- TGI [6]: > 100 µM
- TGI [7]: > 100 µM
- TGI [8]: > 100 µM
- TGI [10]: > 100 µM
- TGI [11]: > 100 µM
- TGI [12]: > 100 µM
- TGI [13]: > 100 µM
- TGI [15]: > 100 µM
- TGI [16]: > 100 µM
- TGI [17]: > 100 µM
- TGI [19]: > 100 µM
- TGI [20]: 57 µM
- TGI [21]: > 100 µM
- TGI [22]: 80.6 µM
- TGI [23]: > 100 µM
- TGI [24]: > 100 µM
- TGI [25]: 98.5 µM
- TGI [27]: > 100 µM
- TGI [55]: > 100 µM
- TGI [28]: > 100 µM
- TGI [29]: > 100 µM
- TGI [30]: > 100 µM
- TGI [31]: > 100 µM
- TGI [32]: > 100 µM
- TGI [56]: 81.8 µM
- TGI [33]: > 100 µM
- TGI [35]: 11 µM
- TGI [36]: 28.5 µM
- TGI [37]: > 100 µM
- TGI [38]: > 100 µM
- TGI [39]: > 100 µM
- TGI [40]: > 100 µM
- TGI [41]: 97 µM
- TGI [42]: > 100 µM
- TGI [43]: > 100 µM
- TGI [44]: > 100 µM
- TGI [45]: > 100 µM
- TGI [57]: > 100 µM
- TGI [46]: > 100 µM
- TGI [47]: > 100 µM
- TGI [48]: > 100 µM
- TGI [49]: > 100 µM
- TGI [50]: > 100 µM
- TGI [51]: > 100 µM
- TGI [52]: > 100 µM
- TGI [54]: > 100 µM

Source: PubChem BioAssay (NCI)
